From US10023559B2 (Hoffmann-La Roche Inc., priority 2014, dated 2018) come the findings set out here.

pKi: −log10 of the molar value.

One assay deals with rat TAAR1 (Rattus norvegicus (Rat), UniProt Q923Y9). Briefly: Radioligand binding assay on rat TAAR1. Particulars: read-out: Ki(μM) rat; rat TAAR1, HEK-293 membranes, second value of cell pair mouse/rat.
The next assay deals with mouse TAAR1 (Mus musculus (Mouse), UniProt Q923Y8). Description: Radioligand binding assay on mouse TAAR1.
Sequence of mouse TAAR1 (Q923Y8 whole entry): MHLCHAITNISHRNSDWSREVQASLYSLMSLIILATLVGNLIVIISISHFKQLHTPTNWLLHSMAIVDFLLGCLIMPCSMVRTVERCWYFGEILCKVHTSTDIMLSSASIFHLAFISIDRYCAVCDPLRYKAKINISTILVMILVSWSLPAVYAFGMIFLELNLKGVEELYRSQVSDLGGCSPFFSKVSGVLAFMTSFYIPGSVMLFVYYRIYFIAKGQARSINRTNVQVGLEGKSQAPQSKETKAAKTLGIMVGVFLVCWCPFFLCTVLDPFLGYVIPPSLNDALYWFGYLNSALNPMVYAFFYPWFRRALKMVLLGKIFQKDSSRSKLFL

Sequence of rat TAAR1 (Q923Y9 whole entry): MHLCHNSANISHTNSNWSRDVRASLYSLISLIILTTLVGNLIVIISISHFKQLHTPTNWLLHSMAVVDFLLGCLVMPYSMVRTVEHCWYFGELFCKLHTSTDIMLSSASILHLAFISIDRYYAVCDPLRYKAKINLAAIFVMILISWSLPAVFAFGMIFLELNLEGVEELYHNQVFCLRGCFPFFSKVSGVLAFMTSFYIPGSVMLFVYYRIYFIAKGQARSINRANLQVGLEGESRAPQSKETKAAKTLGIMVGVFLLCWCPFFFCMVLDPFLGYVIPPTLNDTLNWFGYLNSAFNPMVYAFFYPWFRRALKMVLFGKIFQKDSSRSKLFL
Method for rat TAAR1: Membrane Preparation and Radioligand Binding.
HEK-293 cells stably expressing rat TAAR1 were maintained at 37° C. and 5% CO2 in DMEM high glucose medium, containing fetal calf serum (10%, heat inactivated for 30 min at 56° C.), penicillin/streptomycin (1%), and 375 μg/ml geneticin (Gibco). Cells were released from culture flasks using trypsin/EDTA, harvested, washed twice with ice-cold PBS (without Ca^2+ and Mg^2+), pelleted at 1,000 rpm for 5 min at 4° C., frozen and stored at −80° C. Frozen pellets were suspended in 20 ml HEPES-NaOH (20 mM, pH 7.4) containing 10 mM EDTA and homogenized with a Polytron (PT 6000, Kinematica) at 14,000 rpm for 20 s. The homogenate was centrifuged at 48,000×g for 30 min at 4° C. Subsequently, the supernatant was removed and discarded, and the pellet resuspended in 20 ml HEPES-NaOH (20 mM, pH 7.4) containing 0.1 mM EDTA using the Polytron (20 s at 14,000 rpm). This procedure was repeated and the final pellet resuspended in HEPES-NaOH containing 0.1 mM EDTA and homogenized using the Polytron. Typically, aliquots of 2 ml membrane portions were stored at −80° C. With each new membrane batch the dissociation constant (Kd) was determined via a saturation curve. […] Nonspecific binding was defined as the amount of [H]—(S)-4-[(ethyl-phenyl-amino)-methyl]-4,5-dihydro-oxazol-2-ylamine bound in the presence of 10 M unlabeled ligand. All compounds were tested at a broad range of concentrations (10 pM to 10 μM) in duplicates. […] The 96 deep well plates were incubated for 1 hr at 4° C. Incubations were terminated by rapid filtration through Unifilter-96 plates (Packard Instrument Company) and glass filters GF/C (Perkin Elmer) presoaked for 1 hr in polyethylenimine (0.3%) and washed 3 times with 1 ml of cold binding buffer. After addition of 45 μl of Microscint 40 (PerkinElmer) the Unifilter-96 plate was sealed and after 1 hr the radioactivity counted using a TopCount Microplate Scintillation Counter (Packard Instrument Company).

What is called Ki is the dissociation constant of the complex between target and ligand, obtained from inhibition or displacement. By pKi is commonly meant −log10 of the Ki, conventionally taken in molar units. In the case of `CCc1n[nH]c(C(=O)Nc2ccc(C[C@@H]3NC[C@@H]3F)cc2)c1C` [Example 102, 3-ethyl-N-(4-(((2S,3S)-3-fluoroazetidin-2-yl)methyl)phenyl)-4-methyl-1H-pyrazole-5-carboxamide], the Ki at rat TAAR1 is 0.0875 µM. The compound further showed a pKi on mouse TAAR1 of 7.83.
With `O=C(Nc1ccc(OC2CNC2)cc1)c1cnc(C2CC2)nc1` [Example 14, N-(4-(azetidin-3-yloxy)phenyl)-2-cyclopropylpyrimidine-5-carboxamide], the Ki at rat TAAR1 was 0.1 µM. Also, the pKi at mouse TAAR1 was 7.83.
Regarding `CCOc1ccc(C(=O)Nc2ccc(C[C@@H]3NC[C@@H]3F)cc2)cn1` [Example 128, 6-ethoxy-N-(4-(((2S,3S)-3-fluoroazetidin-2-yl)methyl)phenyl)nicotinamide], on rat TAAR1, the inhibition constant (Ki) stood at 0.0204 µM. At mouse TAAR1, this compound showed a pKi of 8.64.
For `O=C(Nc1ccc(C=C2CNC2)cc1)c1cnc(C(F)(F)F)nc1` [Example 59, N-[4-(azetidin-3-ylidenemethyl)phenyl]-2-(trifluoromethyl)pyrimidine-5-carboxamide], the Ki at rat TAAR1 came to 0.0079 µM. The same compound gave a pKi on mouse TAAR1 of 8.05.
Take `O=C(Nc1ccc(CC2(F)CNC2)cc1)c1cnc(C(F)(F)F)nc1` [Example 55, N-[4-[(3-fluoroazetidin-3-yl)methyl]phenyl]-2-(trifluoromethyl)pyrimidine-5-carboxamide]: the Ki at rat TAAR1 amounted to 0.0059 µM. Also, the pKi at mouse TAAR1 is 7.79.
As for `O=C(Nc1ccc(CC2(F)CNC2)cc1)c1cnc(OCC(F)(F)F)cn1` [Example 57, N-[4-[(3-fluoroazetidin-3-yl)methyl]phenyl]-5-(2,2,2-trifluoroethoxy)pyrazine-2-carboxamide], at rat TAAR1, the inhibition constant Ki was 0.0369 µM. This compound also showed a negative-log Ki (pKi) at mouse TAAR1 of 7.83.
Taken in the same sequence, the figures for `O=C(Nc1ccc(C[C@H]2NC[C@H]2F)cc1)c1cnc(C2CC2)nc1` [Example 124, 2-cyclopropyl-N-(4-(((2R,3R)-3-fluoroazetidin-2-yl)methyl)phenyl)pyrimidine-5-carboxamide] were over 1.5 µM and 7.26.
The like results for `CCc1n[nH]c(C(=O)Nc2ccc(C[C@H]3NC[C@H]3F)cc2)c1C` [Example 103, 3-ethyl-N-(4-(((2R,3R)-3-fluoroazetidin-2-yl)methyl)phenyl)-4-methyl-1H-pyrazole-5-carboxamide] were, in that order, 1.27 µM and 7.34.
In the case of `O=C(Nc1ccc(C=C2CNC2)cc1)c1n[nH]c(C2CC2)c1Cl` [Example 58, N-[4-(azetidin-3-ylidenemethyl)phenyl]-4-chloro-3-cyclopropyl-1H-pyrazole-5-carboxamide], the inhibition constant Ki at rat TAAR1 turned out to be 0.0188 µM. The pKi on mouse TAAR1 was 8.85.
Taken in the same sequence, the figures for `O=C(Nc1ccc(C=C2CNC2)cc1)c1ccc(Cl)cc1` [Example 61, N-[4-(azetidin-3-ylidenemethyl)phenyl]-4-chloro-benzamide] were 0.246 µM and 6.92.
For `CCc1n[nH]c(C(=O)Nc2ccc(C=C3CNC3)c(F)c2)c1C` [Example 88, N-(4-(azetidin-3-ylidenemethyl)-3-fluorophenyl)-3-ethyl-4-methyl-1H-pyrazole-5-carboxamide], the Ki at rat TAAR1 came out at 0.005 µM. Also, the pKi at mouse TAAR1 is 7.76.
